Source: patent US20220193047A1, “METHODS OF ENHANCING RADIOTHERAPY USING FERROPTOSIS INDUCERS AS RADIOSENSITIZERS” (THE TRUSTEES OF COLUMBIA UNIVERSITY IN THE CITY OF NEW YORK, priority 2019, published 2022)

Columns and labels:
Type in all cases: cell-based
PTGS2 mRNA = test: RT-qPCR of PTGS2 mRNA; conditions: HT-1080, 6 Gy radiation, 24 hours; 100 nM RSL3 or 10 μM ferrostatin-1
Description: RNA was extracted using the Qiashredder and QIAGEN RNeasy Mini kits (QIAGEN) according to the manufacturer's protocol. 2 μg total RNA for each sample was used as input for each reverse transcription reaction. Quantitative PCR reactions were performed using the Power SYBR Green PCR Master Mix (Thermo Fisher Scientific). Triplicate samples per condition were analyzed on an Applied Biosystems 7300 qPCR instrument using absolute quantification settings. Differences in mRNA levels compared to ACTB internal reference control were computed between control and experimental conditions using the ΔΔCt method. The primers used in this study are listed below.

malondialdehyde (MDA) = test: TBARS assay of MDA levels; conditions: HT-1080, 24 h; 1 μM IKE or 10 μM ferrostatin-1, with or without 6 Gy radiation
Description: 2 million cells were seeded in T175 flasks. […] The whole lysate was used to determine MDA concentration in each sample. We used the TBARS assay kit (Cayman Chemical) and followed the product instructions.
Next, levels of malondialdehyde (MDA), a biomarker for lipid peroxidation and ferroptosis, were quantified using an assay that measures thiobarbituric acid reactive substances (TBARS) (Gaschler et al., 2018). In this assay, thiobarbituric acid (TBA) was added to cell lysates and heated under acidic conditions to form the MDA-TBA adduct, which was measured colorimetrically.

[1] = tested on: human glioma slice cultures; test: Human glioma organotypic slice cultures, H2DCFDA ROS by flow cytometry
Description: Human surgical specimens were collected from Columbia University Medical Center operating theaters in accordance with Institutional Review Board protocols. Surgical specimens were deidentified, placed in a sterile 50 mL conical tube containing ice-cold sucrose solution (210 mM sucrose, 10 mM glucose, 2.5 mM KCl, 1.25 mM NaH2PO4, 0.5 mM CaCl2), 7 mM MgCl2 and 26 mM NaHCO3). Tissue specimens were let rest in the sucrose solution for 20 minutes. Tissue specimens were then cut into 300 μm sections using a Mcllwain Tissue Chopper. Sections after cutting were let rest in the sucrose solution for 20 minutes. Then the tissue sections were transferred onto Millicell cell culture inserts ([…], 30 mm diameter) and placed in 6-well plates containing 1.5 mL of media. The media consisted of DMEM/F12 plus N−2 Supplement. […]
To further study the potential of combining small-molecule ferroptosis inducers and radiation for human therapeutic use, ex vivo samples of human glioma, which have been immediately cut from freshly resected tumors and grown as organotypic slice cultures, were used as previously described (Parker et al., 2017). De-identified patient information for these tumor samples are recorded in Table 4. […] Tumor cell viability within slices was not assessed, as the number of tumor cells embedded in each slice cannot be normalized between slices.

SK-LMS-1 cells = test: Clonogenic assay with radiation, SK-LMS-1
Description: (§1) 500 cells were seeded per well in 6-well plates in their respective growth media and incubated overnight. The next day, cells were co-treated with DMSO or compounds and radiation using a Gammacell 40 Caesium-137 irradiator (Theratronics). Plates were monitored every day using a light microscope for formation of colonies in the DMSO-treated wells. When colonies of >50 cells are clearly visible, the growth medium was discarded from all plates. The cells were washed with PBS, then fixed and stained with crystal violet solution (0.05% crystal violet, 1% formaldehyde, 1% methanol in PBS). Colonies were then directly visualized and counted.
(§2) The coefficient of drug interaction (CDI), used to compute interaction between two drugs, was used to quantify synergy between cell death inducers and radiation according to the formula CDI=AB/(A×B), where AB is the surviving fraction of the combination treatment, and A and B are the surviving fractions of the individual treatments. […]
(§3) It was then tested whether cell death enhancement of radiation with ferroptosis inducers occurred across diverse tumor cell types. […] In addition to the initial ferroptosis-sensitive HT-1080 sarcoma cell line, glioma and lung cancer cells were evaluated, due to the clinical relevance of radiation therapy for the treatment of these tumor types. […]

U87 cells = test: Clonogenic assay with radiation, U87
Description: as §1, §2, §3

A549 cells = test: Clonogenic assay with radiation, A549
Description: as §1, §2, §3

PC9 cells = test: Clonogenic assay with radiation, PC9
Description: as §1, §2, §3

Compound	PTGS2 mRNA (PTGS2 mRNA)	MDA levels (malondialdehyde (MDA))	ROS accumulation with IKE and radiation, ferrostatin-1 co-treatment ([1]; 10 μM ferrostatin-1)	Highest observed coefficient of Drug Interaction (CDI) in combination with IR (SK-LMS-1 cells)	Highest observed coefficient of Drug Interaction (CDI) in combination with IR (U87 cells)	Highest observed coefficient of Drug Interaction (CDI) in combination with IR (A549 cells)	Highest observed coefficient of Drug Interaction (CDI) in combination with IR (PC9 cells)	ROS generation (H2DCFDA), combination with radiation vs control ([1]; 10 μM IKE, 2 Gy radiation, 24 hours, three responsive slice cultures)
CCOC(=O)c1ccc(NC2CCCCC2)c(N)c1 [ferrostatin-1]	reversed this induction of PTGS2	significantly lower levels of MDA	partially suppressible	–	–	–	–	–
COC(=O)c1ccc([C@@H]2c3[nH]c4ccccc4c3C[C@@H](C(=O)OC)N2C(=O)CCl)cc1 [RSL3, Ras Synthetic Lethal 3]	even further enhanced	–	–	0.31	0.31	0.31	0.64	–
CC(C)Oc1ccc(C(=O)Cn2ccnc2)cc1-n1c(CN2CCN(C(=O)COc3ccc(Cl)cc3)CC2)nc2ccccc2c1=O [IKE, imidazole ketone erastin]	–	significantly elevated	–	0.48	0.65	0.30	0.70	significant enhancement of ROS generation
